Test results as given in ChEMBL document CHEMBL5223154, “9-Demethoxy-medicarpin: A potential bone health supplement for the management of protein deficiency-induced bone loss in growing rats” (2023).
The source made the active and inactive calls. The calls are words filed in the database; no cut-off is given here.

How the values were obtained:
Rattus norvegicus [1] = assay: Effect on protein deficiency diet induced bone loss in Sprague-Dawley rat assessed as change in body weight at 1 mg, po supplemented with protein deficient diet for one month followed by compound treatment and measured twice a week for 4 weeks; assay type: functional
Rattus norvegicus [2] = assay: Effect on protein deficiency diet induced bone loss in Sprague-Dawley rat assessed as change in serum urea level at 10 mg, po supplemented with protein deficient diet for one month followed by compound treatment and measured after 4 weeks; assay type: functional
Rattus norvegicus [3] = assay: Effect on protein deficiency diet induced bone loss in Sprague-Dawley rat assessed as change in serum total protein level at 1 mg, po supplemented with protein deficient diet for one month followed by compound treatment and measured after 4 weeks; assay type: functional
Rattus norvegicus [4] = assay: Effect on protein deficiency diet induced bone loss in Sprague-Dawley rat assessed as change in phosphate ion level in serum at 1 mg, po supplemented with protein deficient diet for one month followed by compound treatment and measured after 4 weeks; assay type: functional
Rattus norvegicus [5] = assay: Effect on protein deficiency diet induced bone loss in Sprague-Dawley rat assessed as change in serum albumin level at 10 mg, po supplemented with protein deficient diet for one month followed by compound treatment and measured after 4 weeks; assay type: functional
Rattus norvegicus [6] = assay: Effect on protein deficiency diet induced bone loss in Sprague-Dawley rat assessed as change in serum albumin level at 1 mg, po supplemented with protein deficient diet for one month followed by compound treatment and measured after 4 weeks; assay type: functional
Rattus norvegicus [7] = assay: Effect on protein deficiency diet induced bone loss in Sprague-Dawley rat assessed as change in femur length at 1 mg, po supplemented with protein deficient diet for one month followed by compound treatment and measured after 4 weeks; assay type: functional
Rattus norvegicus [8] = assay: Effect on protein deficiency diet induced bone loss in Sprague-Dawley rat assessed as change in serum alkaline phosphatase level at 10 mg, po supplemented with protein deficient diet for one month followed by compound treatment and measured after 4 weeks; assay type: functional
Rattus norvegicus [9] = assay: Effect on protein deficiency diet induced bone loss in Sprague-Dawley rat assessed as change in femur length at 10 mg, po supplemented with protein deficient diet for one month followed by compound treatment and measured after 4 weeks; assay type: functional
Rattus norvegicus [10] = assay: Effect on protein deficiency diet induced bone loss in Sprague-Dawley rat assessed as change in serum alkaline phosphatase level at 1 mg, po supplemented with protein deficient diet for one month followed by compound treatment and measured after 4 weeks; assay type: functional
Rattus norvegicus [11] = assay: Effect on protein deficiency diet induced bone loss in Sprague-Dawley rat assessed as change in tibia length at 1 mg, po supplemented with protein deficient diet for one month followed by compound treatment and measured after 4 weeks; assay type: functional
Rattus norvegicus [12] = assay: Effect on protein deficiency diet induced bone loss in Sprague-Dawley rat assessed as increase in bone mineral density at TFSP region of tibia at 10 mg, po supplemented with protein deficient diet for one month followed by compound treatment and measured after 4 weeks; assay type: functional, organism-based
Rattus norvegicus [13] = assay: Effect on protein deficiency diet induced bone loss in Sprague-Dawley rat assessed as change in serum creatinine level at 10 mg, po supplemented with protein deficient diet for one month followed by compound treatment and measured after 4 weeks; assay type: functional
Rattus norvegicus [14] = assay: Effect on protein deficiency diet induced bone loss in Sprague-Dawley rat assessed as increase in L3 vertebral bone mineral density at 1 to 10 mg, po supplemented with protein deficient diet for one month followed by compound treatment and measured after 4 weeks; assay type: functional, organism-based; conditions: dose 1-10 mg
Rattus norvegicus [15] = assay: Effect on protein deficiency diet induced bone loss in Sprague-Dawley rat assessed as increase in global femur bone mineral density at 10 mg, po supplemented with protein deficient diet for one month followed by compound treatment and measured after 4 weeks; assay type: functional, organism-based
Rattus norvegicus [16] = assay: Effect on protein deficiency diet induced bone loss in Sprague-Dawley rat assessed as increase in global vertebral bone mineral density at 1 to 10 mg, po supplemented with protein deficient diet for one month followed by compound treatment and measured after 4 weeks; assay type: functional, organism-based; conditions: dose 1-10 mg
Rattus norvegicus [17] = assay: Effect on protein deficiency diet induced bone loss in Sprague-Dawley rat assessed as increase in L2 vertebral bone mineral density at 1 to 10 mg, po supplemented with protein deficient diet for one month followed by compound treatment and measured after 4 weeks; assay type: functional, organism-based; conditions: dose 1-10 mg
Rattus norvegicus [18] = assay: Effect on protein deficiency diet induced bone loss in Sprague-Dawley rat assessed as change in phosphate ion level in serum at 10 mg, po supplemented with protein deficient diet for one month followed by compound treatment and measured after 4 weeks; assay type: functional
Rattus norvegicus [19] = assay: Effect on protein deficiency diet induced bone loss in Sprague-Dawley rat assessed as increase in bone mineral density at midshaft of femur at 10 mg, po supplemented with protein deficient diet for one month followed by compound treatment and measured after 4 weeks; assay type: functional, organism-based
Rattus norvegicus [20] = assay: Effect on protein deficiency diet induced bone loss in Sprague-Dawley rat assessed as increase in bone mineral density at neck of femur at 10 mg, po supplemented with protein deficient diet for one month followed by compound treatment and measured after 4 weeks; assay type: functional, organism-based
Rattus norvegicus [21] = assay: Effect on protein deficiency diet induced bone loss in Sprague-Dawley rat assessed as change in serum total protein level at 10 mg, po supplemented with protein deficient diet for one month followed by compound treatment and measured after 4 weeks; assay type: functional
Rattus norvegicus [22] = assay: Effect on protein deficiency diet induced bone loss in Sprague-Dawley rat assessed as change in body weight at 10 mg, po supplemented with protein deficient diet for one month followed by compound treatment and measured twice a week for 4 weeks; assay type: functional
Rattus norvegicus [23] = assay: Effect on protein deficiency diet induced bone loss in Sprague-Dawley rat assessed as increase in bone mineral density at TFSP region of tibia at 1 mg, po supplemented with protein deficient diet for one month followed by compound treatment and measured after 4 weeks; assay type: functional, organism-based
Rattus norvegicus [24] = assay: Effect on protein deficiency diet induced bone loss in Sprague-Dawley rat assessed as change in serum urea level at 1 mg, po supplemented with protein deficient diet for one month followed by compound treatment and measured after 4 weeks; assay type: functional
Rattus norvegicus [25] = assay: Effect on protein deficiency diet induced bone loss in Sprague-Dawley rat assessed as increase in L4 vertebral bone mineral density at 1 to 10 mg, po supplemented with protein deficient diet for one month followed by compound treatment and measured after 4 weeks; assay type: functional, organism-based; conditions: dose 1-10 mg
Rattus norvegicus [26] = assay: Effect on protein deficiency diet induced bone loss in Sprague-Dawley rat assessed as change in tibia length at 10 mg, po supplemented with protein deficient diet for one month followed by compound treatment and measured after 4 weeks; assay type: functional
Rattus norvegicus [27] = assay: Effect on protein deficiency diet induced bone loss in Sprague-Dawley rat assessed as increase in global tibial bone mineral density at 10 mg, po supplemented with protein deficient diet for one month followed by compound treatment and measured after 4 weeks; assay type: functional, organism-based
Rattus norvegicus [28] = assay: Effect on protein deficiency diet induced bone loss in Sprague-Dawley rat assessed as increase in L1 vertebral bone mineral density at 1 to 10 mg, po supplemented with protein deficient diet for one month followed by compound treatment and measured after 4 weeks; assay type: functional, organism-based; conditions: dose 1-10 mg
Rattus norvegicus [29] = assay: Effect on protein deficiency diet induced bone loss in Sprague-Dawley rat assessed as change in serum TGA level at 10 mg, po supplemented with protein deficient diet for one month followed by compound treatment and measured after 4 weeks; assay type: functional
Rattus norvegicus [30] = assay: Effect on protein deficiency diet induced bone loss in Sprague-Dawley rat assessed as increase in bone mineral density at proximal head of tibia at 10 mg, po supplemented with protein deficient diet for one month followed by compound treatment and […]; assay type: functional, organism-based
Mesenchymal stem cells = assay: Induction of osteoblast differentiation in bone marrow mesenchymal stem cells isolated from Sprague-Dawley rat model of protein deficiency diet induced bone loss assessed as increase in mineralized nodule formation at 1 to 10 mg, po supplemented with protein deficient diet for one month followed by compound treatment and measured after 4 weeks by Alizarin Red-S staining based analysis; assay type: functional, organism-based; conditions: dose 1-10 mg
Rattus norvegicus [31] = assay: Effect on protein deficiency diet induced bone loss in Sprague-Dawley rat assessed as increase in global tibial bone mineral density at 1 mg, po supplemented with protein deficient diet for one month followed by compound treatment and measured after 4 weeks; assay type: functional, organism-based
Rattus norvegicus [32] = assay: Effect on protein deficiency diet induced bone loss in Sprague-Dawley rat assessed as increase in bone mineral density at proximal head of tibia at 1 mg, po supplemented with protein deficient diet for one month followed by compound treatment and measured after 4 weeks; assay type: functional, organism-based
Rattus norvegicus [33] = assay: Effect on protein deficiency diet induced bone loss in Sprague-Dawley rat assessed as change in serum TGA level at 1 mg, po supplemented with protein deficient diet for one month followed by compound treatment and measured after 4 weeks; assay type: functional
Rattus norvegicus [34] = assay: Effect on protein deficiency diet induced bone loss in Sprague-Dawley rat assessed as change in serum creatinine level at 1 mg, po supplemented with protein deficient diet for one month followed by compound treatment and measured after 4 weeks; assay type: functional

Oc1ccc2c(c1)OCC1c3ccccc3OC21 (stereo not given)
Activity (Rattus norvegicus [1]): 74.03 g | Activity (Rattus norvegicus [2]): 14.1333 mmol/L | Activity (Rattus norvegicus [3]): 48.9 g/L | Activity (Rattus norvegicus [4]): 4.346 mg/dL | Activity (Rattus norvegicus [5]): 1.45 g/dL | Activity (Rattus norvegicus [6]): 1.11 g/dL | Activity (Rattus norvegicus [7]): 2.25 cm | Activity (Rattus norvegicus [8]): 512.55 IU/L | Activity (Rattus norvegicus [9]): 2.39 cm | Activity (Rattus norvegicus [10]): 377.2 IU/L | Activity (Rattus norvegicus [11]): 2.647 cm | Activity (Rattus norvegicus [12]): Active | Activity (Rattus norvegicus [13]): 0.2567 mg/dL | Activity (Rattus norvegicus [14]): Active | Activity (Rattus norvegicus [15]): Active | Activity (Rattus norvegicus [16]): Active | Activity (Rattus norvegicus [17]): Active | Activity (Rattus norvegicus [18]): 7.576 mg/dL | Activity (Rattus norvegicus [19]): Active | Activity (Rattus norvegicus [20]): Active | Activity (Rattus norvegicus [21]): 64.7 g/L | Activity (Rattus norvegicus [22]): 79.7 g | Activity (Rattus norvegicus [23]): inactive | Activity (Rattus norvegicus [24]): 11.3 mmol/L | Activity (Rattus norvegicus [25]): Active | Activity (Rattus norvegicus [26]): 2.8 cm | Activity (Rattus norvegicus [27]): Active | Activity (Rattus norvegicus [28]): Active | Activity (Rattus norvegicus [29]): 23.9333 mg/dL | Activity (Rattus norvegicus [30]): Active | Activity (Mesenchymal stem cells): Active | Activity (Rattus norvegicus [31]): inactive | Activity (Rattus norvegicus [32]): inactive | Activity (Rattus norvegicus [33]): 17.8333 mg/dL | Activity (Rattus norvegicus [34]): 0.2633 mg/dL
